Measurements from patent US20250368627A1, “PYRAZOLESULFONAMIDES AS ANTITUMOR AGENTS” (Peloton Therapeutics, Inc., a fully owned subsidiary of …, priority 2019, published 2025).

How the values were obtained:
[1] = tested on: HCT116 human colorectal carcinoma cells; experiment: CellTiter-Glo Luminescent Cell Viability Assay; assay type: cell-based; settings: HCT-116, 72 h, 3 days
Outline: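 CellTiter-Glo luminescence gave viability after 3 days of compound exposure in HCT116 cells grown in DMEM/10% FBS. Final concentrations ran from 5 to 0.0002 […] in 1:3 steps, each in triplicate, with IC50 derived from the curves.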

[2] = target: T1, DDB1DB/DCAF15 and RBM39 R1R2 complex (Homo sapiens, UniProt Q14498+Q66K64); experiment: DCAF15 RBM39 Complex Formation Assay (FRET); assay type: binding; settings: FRET ratio Em 665/Em 615, incubated overnight at 4° C.
T1 construct: Amino acids 150 to 331 of RBM39 were cloned into pGEX4T3; GST (from vector pGEX4T3); TEV cleavage site (N); made in house; host or cells: DDB1DB/His-DCAF15: baculovirus/Sf9 co-expression; RBM39 R1R2: E. coli (pGEX4T3)
Outline: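 Ternary complex formation read by TR-FRET (Em 665/615, excitation 340 nm) after overnight incubation at 4° C of 20 nM baculovirus DDB1DB/His-DCAF15 and 50 nM E. coli RBM39 RRM1-RRM2 FLAG fragment with 14-point, 3-fold compound dilutions from 1 μM; EC50 from 4-parameter fit.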

T1 sequence (Q66K64 whole entry, the tested form may be a part): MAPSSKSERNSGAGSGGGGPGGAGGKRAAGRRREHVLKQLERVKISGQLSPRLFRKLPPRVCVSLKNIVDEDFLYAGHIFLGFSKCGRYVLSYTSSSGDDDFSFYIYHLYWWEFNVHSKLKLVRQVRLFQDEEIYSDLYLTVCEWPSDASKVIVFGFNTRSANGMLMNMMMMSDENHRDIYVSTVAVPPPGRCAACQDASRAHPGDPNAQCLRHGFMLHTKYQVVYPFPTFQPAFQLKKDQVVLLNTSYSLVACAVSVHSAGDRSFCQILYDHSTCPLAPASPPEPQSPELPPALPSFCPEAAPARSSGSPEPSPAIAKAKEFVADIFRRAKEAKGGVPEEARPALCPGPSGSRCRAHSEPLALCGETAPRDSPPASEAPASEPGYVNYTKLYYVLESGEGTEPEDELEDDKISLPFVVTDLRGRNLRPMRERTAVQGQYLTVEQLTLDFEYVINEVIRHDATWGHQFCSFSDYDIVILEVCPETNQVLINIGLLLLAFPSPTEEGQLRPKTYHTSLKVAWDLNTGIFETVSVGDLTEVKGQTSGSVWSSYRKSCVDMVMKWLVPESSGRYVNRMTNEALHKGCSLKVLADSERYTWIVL
T1 sequence (Q14498 150-331): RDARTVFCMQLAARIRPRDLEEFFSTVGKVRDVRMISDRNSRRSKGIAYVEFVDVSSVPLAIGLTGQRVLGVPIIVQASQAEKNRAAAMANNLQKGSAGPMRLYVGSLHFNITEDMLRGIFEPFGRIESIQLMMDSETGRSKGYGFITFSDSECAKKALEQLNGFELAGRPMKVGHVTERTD
T1 sequence (Q16531 with tags, fused parts or gaps DEL396-708 partner): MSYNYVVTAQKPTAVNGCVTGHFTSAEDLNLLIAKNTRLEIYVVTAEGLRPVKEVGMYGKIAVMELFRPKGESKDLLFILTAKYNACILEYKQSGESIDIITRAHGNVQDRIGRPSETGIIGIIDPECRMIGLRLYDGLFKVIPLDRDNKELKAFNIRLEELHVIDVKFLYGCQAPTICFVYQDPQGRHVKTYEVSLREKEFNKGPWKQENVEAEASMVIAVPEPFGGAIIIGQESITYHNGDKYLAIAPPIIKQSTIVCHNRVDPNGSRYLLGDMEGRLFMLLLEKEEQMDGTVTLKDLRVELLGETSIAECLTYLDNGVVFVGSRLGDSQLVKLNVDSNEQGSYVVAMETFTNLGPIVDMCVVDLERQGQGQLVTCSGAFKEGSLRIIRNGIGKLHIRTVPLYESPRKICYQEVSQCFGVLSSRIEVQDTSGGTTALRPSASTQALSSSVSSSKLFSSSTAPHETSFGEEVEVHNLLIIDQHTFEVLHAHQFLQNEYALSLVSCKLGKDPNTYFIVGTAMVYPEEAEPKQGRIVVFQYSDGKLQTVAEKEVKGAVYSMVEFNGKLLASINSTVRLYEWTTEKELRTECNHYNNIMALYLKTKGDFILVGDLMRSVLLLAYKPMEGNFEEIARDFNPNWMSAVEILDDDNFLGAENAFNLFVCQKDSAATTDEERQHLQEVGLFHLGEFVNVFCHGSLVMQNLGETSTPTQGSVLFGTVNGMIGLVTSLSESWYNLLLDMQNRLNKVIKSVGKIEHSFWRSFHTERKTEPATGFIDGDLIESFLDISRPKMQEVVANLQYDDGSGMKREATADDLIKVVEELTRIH

| EC50 [1] [nM] | IC50 [2] [nM] | Structure (SMILES) |
| --- | --- | --- |
| < 250 | < 250 | CCn1ncc(S(=O)(=O)Nc2ccc(Cl)c3c(C#N)c[nH]c23)c1N [Compound 273, 5-amino-N-(4-chloro-3-cyano-1H-indol-7-yl)-1-ethyl-pyrazole-4-sulfonamide] |
| < 250 | < 250 | Cc1ccc(NS(=O)(=O)c2cnn([C@H](C)[C@H](C)O)c2)c2[nH]cc(C#N)c12 [Compound 274, N-(3-cyano-4-methyl-1H-indol-7-yl)-1-[(1R,2S)-2-hydroxy-1-methyl-propyl]pyrazole-4-sulfonamide] |
| 250 to 1000 | < 250 | C[C@H](O)[C@@H](C)n1cc(S(=O)(=O)Nc2ccc(Cl)c3c(C#N)c[nH]c23)cn1 [Compound 275, N-(4-chloro-3-cyano-1H-indol-7-yl)-1-[(1R,2S)-2-hydroxy-1-methyl-propyl]pyrazole-4-sulfonamide] |
| 250 to 1000 | < 250 | Cc1ccc(NS(=O)(=O)c2cnn(CC(C)(C)O)c2Cl)c2[nH]cc(C#N)c12 [Compound 276, 5-chloro-N-(3-cyano-4-methyl-1H-indol-7-yl)-1-(2-hydroxy-2-methyl-propyl)pyrazole-4-sulfonamide] |
| < 250 | < 250 | Cc1ccc(NS(=O)(=O)c2cnn(CC(F)F)c2N)c2[nH]cc(C#N)c12 [Compound 277, 5-amino-N-(3-cyano-4-methyl-1H-indol-7-yl)-1-(2,2-difluoroethyl)pyrazole-4-sulfonamide] |
| < 250 | < 250 | N#Cc1c[nH]c2c(NS(=O)(=O)c3cnn(CC(F)F)c3N)ccc(Cl)c12 [Compound 278, 5-amino-N-(4-chloro-3-cyano-1H-indol-7-yl)-1-(2,2-difluoroethyl)pyrazole-4-sulfonamide] |
| 250 to 1000 | < 250 | N#Cc1c[nH]c2c(NS(=O)(=O)c3cnn(CC(F)F)c3N)ccc(F)c12 [Compound 279, 5-amino-N-(4-cyano-4-fluoro-1H-indol-7-yl)-1-(2,2-difluoroethyl)pyrazole-4-sulfonamide] |
| > 1000 | < 250 | CC(C)(O)Cn1ncc(S(=O)(=O)Nc2ccc(F)c3c(C#N)c[nH]c23)c1Cl [Compound 280, 5-chloro-N-(3-cyano-4-fluoro-1H-indol-7-yl)-1-(2-hydroxy-2-methyl-propyl)pyrazole-4-sulfonamide] |
| < 250 | < 250 | Cc1ccc(NS(=O)(=O)c2cnn([C@H](C)CF)c2)c2[nH]cc(C#N)c12 [Compound 281, N-(3-cyano-4-methyl-1H-indol-7-yl)-1-[(1R)-2-fluoro-1-methyl-ethyl]pyrazole-4-sulfonamide] |
| 250 to 1000 | < 250 | Cn1ncc(S(=O)(=O)Nc2ccc(F)c3c(C#N)c[nH]c23)c1N [Compound 282, 5-amino-N-(3-cyano-4-fluoro-1H-indol-7-yl)-1-methyl-pyrazole-4-sulfonamide] |
| 250 to 1000 | < 250 | Cc1ccc(NS(=O)(=O)c2cnn(CC(C)(C)O)c2N)c2[nH]cc(C#N)c12 [Compound 283, 5-amino-N-(3-cyano-4-methyl-1H-indol-7-yl)-1-(2-hydroxy-2-methyl-propyl)pyrazole-4-sulfonamide] |
| < 250 | < 250 | Cc1ccc(NS(=O)(=O)c2cnn(C(F)F)c2N)c2[nH]cc(C#N)c12 [Compound 284, 5-amino-N-(3-cyano-4-methyl-1H-indol-7-yl)-1-(difluoromethyl)pyrazole-4-sulfonamide] |
| 250 to 1000 | < 250 | N#Cc1c[nH]c2c(NS(=O)(=O)c3cnn(C(F)F)c3N)ccc(F)c12 [Compound 285, 5-amino-N-(3-cyano-4-fluoro-1H-indol-7-yl)-1-(difluoromethyl)pyrazole-4-sulfonamide] |
| 250 to 1000 | < 250 | C[C@H]([C@@H](C)O)n1cc(S(=O)(=O)Nc2ccc(Cl)c3c(C#N)c[nH]c23)cn1 [Compound 286, N-(4-chloro-3-cyano-1H-indol-7-yl)-1-[(1R,2R)-2-hydroxy-1-methyl-propyl]pyrazole-4-sulfonamide] |
| < 250 | < 250 | Cc1ccc(NS(=O)(=O)c2cnn([C@H](C)[C@@H](C)O)c2)c2[nH]cc(C#N)c12 [Compound 287, N-(3-cyano-4-methyl-1H-indol-7-yl)-1-[(1R,2R)-2-hydroxy-1-methyl-propyl]pyrazole-4-sulfonamide] |
| 250 to 1000 | < 250 | C[C@H]([C@@H](C)O)n1cc(S(=O)(=O)Nc2ccc(F)c3c(C#N)c[nH]c23)cn1 [Compound 288, N-(3-cyano-4-fluoro-1H-indol-7-yl)-1-[(1R,2R)-2-hydroxy-1-methyl-propyl]pyrazole-4-sulfonamide] |
| 250 to 1000 | < 250 | CC(C)(O)Cn1ncc(S(=O)(=O)Nc2ccc(Cl)c3c(C#N)c[nH]c23)c1N [Compound 289, 5-amino-N-(4-chloro-3-cyano-1H-indol-7-yl)-1-(2-hydroxy-2-methyl-propyl)pyrazole-4-sulfonamide] |

| EC50 [1] [nM] | IC50 [2] [nM] | Structure (SMILES) |
| --- | --- | --- |
| < 250 | < 250 | CCn1cc(S(=O)(=O)Nc2ccc(C)c3c(C#N)c[nH]c23)c(N)n1 [Compound 290, 3-amino-N-(3-cyano-4-methyl-1H-indol-7-yl)-1-ethyl-pyrazole-4-sulfonamide] |
| 250 to 1000 | < 250 | CCn1cc(S(=O)(=O)Nc2ccc(F)c3c(C#N)c[nH]c23)c(N)n1 [Compound 291, 3-amino-N-(3-cyano-4-fluoro-1H-indol-7-yl)-1-ethyl-pyrazole-4-sulfonamide] |
| < 250 | < 250 | N#Cc1c[nH]c2c(NS(=O)(=O)c3cnn(C(F)F)c3N)cccc12 [Compound 292] |
| 250 to 1000 | < 250 | Cc1ccc(NS(=O)(=O)c2cnn(C(C)(F)CO)c2)c2[nH]cc(C#N)c12 (centres unmarked) [Compound 293, N-(3-cyano-4-methyl-1H-indol-7-yl)-1-(1-fluoro-2-hydroxy-1-methyl-ethyl)pyrazole-4-sulfonamide] |
| > 1000 | < 250 | CC(F)(CO)n1cc(S(=O)(=O)Nc2ccc(F)c3c(C#N)c[nH]c23)cn1 (centres unmarked) [Compound 294, N-(3-cyano-4-fluoro-1H-indol-7-yl)-1-(1-fluoro-2-hydroxy-1-methyl-ethyl)pyrazole-4-sulfonamide] |
| 250 to 1000 | < 250 | Cc1ccc(NS(=O)(=O)c2c[nH]nc2N)c2[nH]cc(C#N)c12 [Compound 295, 3-amino-N-(3-cyano-4-methyl-1H-indol-7-yl)-1H-pyrazole-4-sulfonamide] |
| > 1000 | < 250 | N#Cc1c[nH]c2c(NS(=O)(=O)c3c[nH]nc3N)ccc(Cl)c12 [Compound 296, 3-amino-N-(4-chloro-3-cyano-1H-indol-7-yl)-1H-pyrazole-4-sulfonamide] |
| < 250 | < 250 | Cc1ccc(NS(=O)(=O)c2cnn(C(F)CO)c2)c2[nH]cc(C#N)c12 (centres unmarked) [Compound 297, N-(3-cyano-4-methyl-1H-indol-7-yl)-1-(1-fluoro-2-hydroxy-ethyl)pyrazole-4-sulfonamide] |
| 250 to 1000 | < 250 | N#Cc1c[nH]c2c(NS(=O)(=O)c3cnn(C(F)CO)c3)ccc(F)c12 (centres unmarked) [Compound 298, N-(3-cyano-4-fluoro-1H-indol-7-yl)-1-(1-fluoro-2-hydroxy-ethyl)pyrazole-4-sulfonamide] |
| 250 to 1000 | < 250 | Cn1ncc(S(=O)(=O)Nc2cccc3c(C#N)c[nH]c23)c1N [Compound 299, 5-amino-N-(3-cyano-1H-indol-7-yl)-1-methyl-pyrazole-4-sulfonamide] |
| > 1000 | < 250 | N#Cc1c[nH]c2c(NS(=O)(=O)c3c[nH]nc3N)ccc(F)c12 [Compound 300, 3-amino-N-(3-cyano-4-fluoro-1H-indol-7-yl)-1H-pyrazole-4-sulfonamide] |
| < 250 | < 250 | Cc1ccc(NS(=O)(=O)c2cnn(C(F)(F)CO)c2)c2[nH]cc(C#N)c12 [Compound 301, N-(3-cyano-4-methyl-1H-indol-7-yl)-1-(1,1-difluoro-2-hydroxy-ethyl)pyrazole-4-sulfonamide] |
| 250 to 1000 | < 250 | N#Cc1c[nH]c2c(NS(=O)(=O)c3cnn(CF)c3)ccc(F)c12 [Compound 302, N-(3-cyano-4-fluoro-1H-indol-7-yl)-1-(fluoromethyl)pyrazole-4-sulfonamide] |
| < 250 | < 250 | Cc1ccc(NS(=O)(=O)c2cnn([C@H](C)CO)c2N)c2[nH]cc(C#N)c12 [Compound 303, 5-amino-N-(3-cyano-4-methyl-1H-indol-7-yl)-1-[(1R)-2-hydroxy-1-methyl-ethyl]pyrazole-4-sulfonamide] |
| < 250 | < 250 | Cc1ccc(NS(=O)(=O)c2cnn(C)c2N)c2[nH]nc(C#N)c12 [Compound 304, 5-amino-N-(3-cyano-4-methyl-1H-indazol-7-yl)-1-methyl-pyrazol-4-sulfonamide] |
| 250 to 1000 | < 250 | Cc1ccc(NS(=O)(=O)c2cnn(CF)c2)c2[nH]nc(C#N)c12 [Compound 305, N-(3-cyano-4-methyl-1H-indazol-7-yl)-1-(fluoromethyl)pyrazole-4-sulfonamide] |
| 250 to 1000 | < 250 | C[C@H](CO)n1ncc(S(=O)(=O)Nc2ccc(Cl)c3c(C#N)c[nH]c23)c1N [Compound 306, 5-amino-N-(4-chloro-3-cyano-1H-indol-7-yl)-1-[(1R)-2-hydroxy-1-methyl-ethyl]pyrazole-4-sulfonamide] |
